The source of these data is patent US20250296988A1, “COMBINATION THERAPY” (ViiV Healthcare Company, priority 2020, published 2025).

The subject of test [1] is broad range of HIV-1 strains. As to conditions: cited from earlier work.
In another test the test system is HIV-1NL4-3. Nature of the test: Two-drug combination anti-HIV cytoprotection assay in MT-4 cells (MTS endpoint, MacSynergy II analysis). It is filed as cell-based. How it is done: Provided below is an evaluation of the anti-HIV-1 activity and cytotoxicity of N6LS in two drug combination studies with Cabotegravir. N6LS was produced using standard methods described in the art. Stock solutions were prepared as listed in Table 4 and were thawed at room temperature on each day of assay setup to generate fresh working drug dilutions that were used that day in the assays. Working dilutions were not stored for re-use in subsequent experiments performed on different days. For each combination assay, N6LS was evaluated using a 20 nM high-test concentration with seven additional serial half-log dilutions. Each dilution of N6LS was tested in combination with five dilutions of the anti-HIV drug, Cabotegravir. In all cases the final DMSO concentration was <0.25%, which has been previously shown to have no effect in the described assays.
For cell preparation, MT-4 cells (obtained from the NIH AIDS Research and Reference Reagent Program) were passaged in T-75 flasks prior to use in the antiviral assay. On the day preceding the assay, the cells were split 1:2 to assure they were in an exponential growth phase at the time of infection. Total cell and viability quantification were performed using a hemacytometer and trypan blue exclusion. Cell viability needed to be greater than 95% for the cells to be utilized in the assay. The cells were re-suspended in tissue culture medium and added to the drug-containing microtiter plates in a volume of 110 μL and at a seeding density of 5.0×10^3 cells/well.
For virus preparation, the virus used for these tests was the CXCR4-tropic virus strain HIV-1NL4-3. This virus was obtained from the NIH AIDS Research and Reference Reagent Program and was grown in MT-4 cells for the production of stock virus pools. For each assay, a pre-titered aliquot of virus was removed from the freezer (−80° C.) and allowed to thaw slowly to room temperature in a biological safety cabinet. The virus was re-suspended and diluted into tissue culture medium such that the amount of virus added to each well, in a volume of 50 μL, was the amount determined to give between 85 to 95% cell-killing at 6 days post infection.
For Plate Format, a checkerboard plate format was used to test five concentrations of Cabotegravir with eight concentrations of N6LS. Combination antiviral efficacy was evaluated on three identical assay plates (i.e., triplicate measurements) that included cell control wells (cells only) and virus control wells (cells plus virus). Combination cytotoxicity was evaluated in parallel on two identical assay plates (i.e., duplicate measurements) that included cell control wells. Antiviral efficacy and cellular toxicity were monitored by MTS staining at the experimental endpoint.
For MTS Endpoint for cell viability, at assay termination, the soluble tetrazolium-based dye MTS (CellTiter 96 Reagent, Promega) was added to each well to determine cell viability and quantify compound toxicity. MTS is metabolized by the mitochondria enzymes of metabolically active cells to yield a soluble formazan product, allowing the rapid quantitative analysis of cell viability and compound cytotoxicity. […] At termination of the assay, 20 μL of MTS reagent was added per well and the microtiter plates were then incubated for 3-4 hours at 37° C., 5% CO2 for the HIV cytoprotection assay; the incubation intervals were chosen based on empirically determined times for optimal MTS reduction. Adhesive plate sealers were used in place of the lids, the sealed plates were inverted several times to mix the soluble formazan product and the plates were read spectrophotometrically at 490/650 nm with a Molecular Devices SpectraMax i3 plate reader.
Combination antiviral assays were performed with MT-4 cells utilizing HIV-1NL4-3, as described above. For each combination assay, five concentrations of Cabotegravir were tested with eight concentrations of N6LS. […]

Setting [2] is: in combination with N6LS, 95% confidence values, experiment 1.
[3] abbreviates: in combination with N6LS, 95% confidence values, experiment 2.
[4] abbreviates: in combination with N6LS, 95% confidence values, experiment 3.
The mark [5] stands for this setting: in combination with N6LS, 95% confidence values, n = 3.

With `C[C@H]1CO[C@@H]2Cn3cc(C(=O)NCc4ccc(F)cc4F)c(=O)c(O)c3C(=O)N12` [Cabotegravir, N-((2,4-Difluorophenyl)methyl)-6-hydroxy-3-methyl-5,7-dioxo-2,3,5,7,11,11a hexahydro (1,3) oxazolo (3,2-a)pyrido (1,2-d) pyrazine-8-carboxamide], the “potency and antiviral activity” value in test [1] is recorded as “subnanomolar potency”. Moreover, the “Drug-drug interaction of the combination” value in the test with HIV-1NL4-3 (combination of N6LS with Cabotegravir) is “mainly synergistic or additive interactions”. Besides, in the test on HIV-1NL4-3 (setting [2]), the “Antagonism Volume, Result 1” value is −45.27 nM^2% and the “Synergy Volume, Result 1” value is 2.32 nM^2%. Further, in the test with HIV-1NL4-3 (setting [3]), the “Antagonism Volume, Result 2” value is recorded as 0 nM^2% and the “Synergy Volume, Result 2” value is on record as 187.5 nM^2%. In the test with HIV-1NL4-3 (setting [4]), the “Antagonism Volume, Result 3” value was −39.56 nM^2% and the “Synergy Volume, Result 3” value stood at 61.7 nM^2%. For the same molecule, in the test on HIV-1NL4-3 (setting [5]), the “Mean Antagonism Volume” value is recorded as −28.28 nM^2 and the “Mean Synergy Volume” value stood at 83.84 nM^2.
